As a reminder, the inhibition is the percentage by which the read-out fell short of the control. For orientation: IC50 means the concentration that inhibits the measured activity by half.

What all share (type): biochemical
In one assay the target is LRRK2 (Homo sapiens, UniProt Q5S007). Nature of the assay: experiment of inhibiting kinase activity, LRRK2. To be noted: for inhibition at 0.01 µM: at 10 nM; for inhibition at 0.01 µM / inhibition at 0.1 µM: read-out: inhibition rate LRRK2; for IC50: kinase activity assay, Table 3; for inhibition at 0.1 µM: at 100 nM. On the procedure: (§1) The inhibition rates of tested compounds on JAK1, JAK2, JAK3, TYK2, CDK7, CDK9, EGFR (T790M) and LRRK2 kinases were measured. The test concentrations of the compounds were 10 nM and 100 nM, and the detection was performed by replicate wells. Alternatively, compounds were 3-fold serial diluted from 10 µM for 10 concentrations in replicate wells.
LRRK2, sequence (Q5S007 whole entry): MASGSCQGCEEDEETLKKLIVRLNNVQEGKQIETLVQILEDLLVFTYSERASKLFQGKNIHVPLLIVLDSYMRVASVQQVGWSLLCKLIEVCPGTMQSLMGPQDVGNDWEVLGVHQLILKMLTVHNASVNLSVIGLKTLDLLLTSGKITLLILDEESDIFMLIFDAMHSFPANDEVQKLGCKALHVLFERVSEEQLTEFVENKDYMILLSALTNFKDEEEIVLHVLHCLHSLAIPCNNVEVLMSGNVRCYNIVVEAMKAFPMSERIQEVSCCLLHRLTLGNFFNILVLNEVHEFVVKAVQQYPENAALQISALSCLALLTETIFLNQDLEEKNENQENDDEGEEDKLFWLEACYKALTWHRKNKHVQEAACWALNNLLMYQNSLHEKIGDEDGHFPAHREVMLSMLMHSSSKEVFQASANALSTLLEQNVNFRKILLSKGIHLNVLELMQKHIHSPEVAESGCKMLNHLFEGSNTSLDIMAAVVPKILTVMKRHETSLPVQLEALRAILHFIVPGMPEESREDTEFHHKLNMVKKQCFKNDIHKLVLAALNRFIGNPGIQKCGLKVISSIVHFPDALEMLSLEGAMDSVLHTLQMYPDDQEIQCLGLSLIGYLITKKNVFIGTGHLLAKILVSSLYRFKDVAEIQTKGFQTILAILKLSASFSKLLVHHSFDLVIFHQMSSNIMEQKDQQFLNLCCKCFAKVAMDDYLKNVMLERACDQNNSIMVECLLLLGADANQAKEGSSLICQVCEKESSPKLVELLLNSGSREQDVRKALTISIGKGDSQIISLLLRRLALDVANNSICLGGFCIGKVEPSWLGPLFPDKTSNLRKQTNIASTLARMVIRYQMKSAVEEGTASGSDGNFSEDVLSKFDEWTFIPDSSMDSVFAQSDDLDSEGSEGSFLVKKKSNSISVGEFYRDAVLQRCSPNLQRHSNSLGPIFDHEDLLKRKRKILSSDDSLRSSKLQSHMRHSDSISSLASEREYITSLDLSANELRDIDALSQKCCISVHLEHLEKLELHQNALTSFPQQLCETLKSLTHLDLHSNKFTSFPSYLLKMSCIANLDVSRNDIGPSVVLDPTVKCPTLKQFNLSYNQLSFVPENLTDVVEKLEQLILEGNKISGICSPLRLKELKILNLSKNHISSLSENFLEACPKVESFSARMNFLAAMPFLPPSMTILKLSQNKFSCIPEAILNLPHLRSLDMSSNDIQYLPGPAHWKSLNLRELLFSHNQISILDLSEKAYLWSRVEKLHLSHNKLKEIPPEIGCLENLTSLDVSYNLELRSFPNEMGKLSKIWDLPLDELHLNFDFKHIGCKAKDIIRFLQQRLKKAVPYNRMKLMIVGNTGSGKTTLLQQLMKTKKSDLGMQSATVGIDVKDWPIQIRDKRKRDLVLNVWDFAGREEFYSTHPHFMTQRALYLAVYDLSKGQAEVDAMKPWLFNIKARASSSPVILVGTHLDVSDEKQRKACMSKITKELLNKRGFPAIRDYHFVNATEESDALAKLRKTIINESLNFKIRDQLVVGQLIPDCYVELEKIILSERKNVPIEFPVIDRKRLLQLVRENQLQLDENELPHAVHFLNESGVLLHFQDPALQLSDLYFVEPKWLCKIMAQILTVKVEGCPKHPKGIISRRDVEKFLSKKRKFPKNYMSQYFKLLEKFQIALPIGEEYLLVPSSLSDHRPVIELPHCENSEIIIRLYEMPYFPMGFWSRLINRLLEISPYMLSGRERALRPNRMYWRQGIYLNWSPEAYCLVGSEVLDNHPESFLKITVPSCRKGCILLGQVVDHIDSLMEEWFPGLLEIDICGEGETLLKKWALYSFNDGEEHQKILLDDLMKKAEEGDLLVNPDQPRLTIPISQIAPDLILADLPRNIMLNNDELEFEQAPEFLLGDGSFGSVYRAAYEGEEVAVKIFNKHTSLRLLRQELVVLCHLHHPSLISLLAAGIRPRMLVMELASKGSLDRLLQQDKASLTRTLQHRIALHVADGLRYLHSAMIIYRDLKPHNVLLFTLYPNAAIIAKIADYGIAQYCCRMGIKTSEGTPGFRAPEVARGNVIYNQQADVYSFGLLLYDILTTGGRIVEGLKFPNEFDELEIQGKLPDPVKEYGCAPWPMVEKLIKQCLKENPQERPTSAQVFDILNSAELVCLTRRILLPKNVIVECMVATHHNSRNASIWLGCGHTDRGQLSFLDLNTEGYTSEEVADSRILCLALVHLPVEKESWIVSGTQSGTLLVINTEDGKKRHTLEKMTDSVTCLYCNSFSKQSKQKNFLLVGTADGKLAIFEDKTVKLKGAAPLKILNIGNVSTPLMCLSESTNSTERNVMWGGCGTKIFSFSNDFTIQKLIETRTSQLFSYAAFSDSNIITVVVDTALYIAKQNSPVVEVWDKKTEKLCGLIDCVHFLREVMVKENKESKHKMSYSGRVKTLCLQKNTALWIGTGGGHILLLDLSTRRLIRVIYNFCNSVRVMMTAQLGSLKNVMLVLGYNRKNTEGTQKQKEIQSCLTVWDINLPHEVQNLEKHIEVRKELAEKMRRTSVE

Another assay has as its target JAK2 (Homo sapiens, UniProt O60674). Nature of the assay: experiment of inhibiting kinase activity (Caliper mobility shift assay), JAK2. Particulars: for inhibition at 0.01 µM: at 10 nM; for inhibition at 0.01 µM / inhibition at 0.1 µM: read-out: inhibition rate JAK2; for inhibition at 0.1 µM: at 100 nM. The method, then: as §1
(§2) The inhibitory effects of the compounds on JAK1, JAK2, JAK3, CDK7 and CDK9 kinases were detected by the method of Caliper mobility shift assay. 250 nL of the compound at 100-fold final concentration was transferred to a destination plate 384-well-plate by using a liquid handler Echo 550. A kinase solution at 2.5-fold final concentration was prepared with 1×kinase buffer. 10 µL of the kinase solution with 2.5-fold final concentration was added to compound wells and positive control wells; and 10 µL of 1×kinase buffer was added to negative control wells. The mixture was centrifuged at 1000 rpm for 30 seconds and then incubated at room temperature for 10 minutes. A mixed solution of ATP and kinase substrate at 5/3-fold final concentration was prepared with 1×kinase buffer, and 15 µL of the mixed solution of ATP and substrate at 5/3-fold final concentration was added to start the reaction. The 384-well plate was centrifuged at 1000 rpm for 30 seconds, shaked and mixed evenly, then incubated at room temperature for a corresponding time. 30 µL of stop solution was added to stop the kinase reaction, the mixture was centrifuged at 1000 rpm for 30 seconds, and shaked and mixed evenly. The conversion rate was read by Caliper EZ Reader. The conversion inhibition rate%=(average positive control conversion rate%-sample conversion rate%)/(average positive control conversion rate%-average negative control conversion rate%). Where negative control wells represent the conversion readings of the background well of kinase buffer; and positive control wells represent the conversion readings of wells without compound inhibition. With the log value of concentration as the x axis and the percentage inhibition rate as the y axis, the dose-response curve was fitted by the log (inhibitor) vs. response-variable slope of the analyzing softwar GraphPad Prism 5, and the IC50 values of each compound on enzyme activity were obtained. Calculation formula is as follows: y=Bottom+(Top-Bottom)/(1+10^((LogIC50-x)×hillslope)), where x is logarithm of inhibitor concentration; and Y is % inhibition rate.

A further assay deals with T1, JAK3 (Homo sapiens, UniProt P52333).
T1 sequence (P52333 1-1124): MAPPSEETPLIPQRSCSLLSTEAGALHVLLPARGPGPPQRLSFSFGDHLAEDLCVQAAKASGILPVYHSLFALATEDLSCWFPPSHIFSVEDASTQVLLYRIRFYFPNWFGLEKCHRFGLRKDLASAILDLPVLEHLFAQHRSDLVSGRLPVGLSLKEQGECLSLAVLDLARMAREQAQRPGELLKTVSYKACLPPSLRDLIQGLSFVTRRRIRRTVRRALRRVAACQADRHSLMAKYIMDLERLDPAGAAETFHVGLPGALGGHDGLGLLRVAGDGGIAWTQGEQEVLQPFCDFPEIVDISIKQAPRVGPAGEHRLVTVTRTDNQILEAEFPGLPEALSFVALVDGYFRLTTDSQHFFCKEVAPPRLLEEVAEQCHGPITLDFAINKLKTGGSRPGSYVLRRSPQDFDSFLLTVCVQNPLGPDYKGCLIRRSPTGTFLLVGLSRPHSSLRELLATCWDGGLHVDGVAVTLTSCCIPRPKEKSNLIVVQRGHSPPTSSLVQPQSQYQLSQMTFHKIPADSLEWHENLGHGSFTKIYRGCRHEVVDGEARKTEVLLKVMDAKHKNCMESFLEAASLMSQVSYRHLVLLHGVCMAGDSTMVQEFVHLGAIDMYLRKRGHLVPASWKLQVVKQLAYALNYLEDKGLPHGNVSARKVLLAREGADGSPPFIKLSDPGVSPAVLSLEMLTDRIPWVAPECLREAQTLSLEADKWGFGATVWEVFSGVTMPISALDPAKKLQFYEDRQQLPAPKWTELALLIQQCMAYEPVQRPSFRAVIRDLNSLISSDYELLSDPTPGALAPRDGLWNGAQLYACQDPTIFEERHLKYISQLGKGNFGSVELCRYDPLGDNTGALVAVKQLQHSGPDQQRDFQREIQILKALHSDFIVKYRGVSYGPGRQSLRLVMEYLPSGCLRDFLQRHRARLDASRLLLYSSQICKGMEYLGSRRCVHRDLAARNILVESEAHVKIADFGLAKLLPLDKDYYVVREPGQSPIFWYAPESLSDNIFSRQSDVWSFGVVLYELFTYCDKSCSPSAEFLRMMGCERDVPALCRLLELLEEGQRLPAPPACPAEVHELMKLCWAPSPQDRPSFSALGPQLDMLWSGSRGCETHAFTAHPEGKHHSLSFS
The experiment in a line: experiment of inhibiting kinase activity (Caliper mobility shift assay), JAK3. To be noted: at 10 nM; read-out: inhibition rate JAK3. The method, then: as §1, §2

In the next assay the target is TYK2 (Homo sapiens, UniProt P29597). The experiment in a line: experiment of inhibiting kinase activity, TYK2. To be noted: at 10 nM; read-out: inhibition rate TYK2. On the procedure:
as §1

Bounds are passed on as bounds.

JAK2, sequence (O60674 whole entry): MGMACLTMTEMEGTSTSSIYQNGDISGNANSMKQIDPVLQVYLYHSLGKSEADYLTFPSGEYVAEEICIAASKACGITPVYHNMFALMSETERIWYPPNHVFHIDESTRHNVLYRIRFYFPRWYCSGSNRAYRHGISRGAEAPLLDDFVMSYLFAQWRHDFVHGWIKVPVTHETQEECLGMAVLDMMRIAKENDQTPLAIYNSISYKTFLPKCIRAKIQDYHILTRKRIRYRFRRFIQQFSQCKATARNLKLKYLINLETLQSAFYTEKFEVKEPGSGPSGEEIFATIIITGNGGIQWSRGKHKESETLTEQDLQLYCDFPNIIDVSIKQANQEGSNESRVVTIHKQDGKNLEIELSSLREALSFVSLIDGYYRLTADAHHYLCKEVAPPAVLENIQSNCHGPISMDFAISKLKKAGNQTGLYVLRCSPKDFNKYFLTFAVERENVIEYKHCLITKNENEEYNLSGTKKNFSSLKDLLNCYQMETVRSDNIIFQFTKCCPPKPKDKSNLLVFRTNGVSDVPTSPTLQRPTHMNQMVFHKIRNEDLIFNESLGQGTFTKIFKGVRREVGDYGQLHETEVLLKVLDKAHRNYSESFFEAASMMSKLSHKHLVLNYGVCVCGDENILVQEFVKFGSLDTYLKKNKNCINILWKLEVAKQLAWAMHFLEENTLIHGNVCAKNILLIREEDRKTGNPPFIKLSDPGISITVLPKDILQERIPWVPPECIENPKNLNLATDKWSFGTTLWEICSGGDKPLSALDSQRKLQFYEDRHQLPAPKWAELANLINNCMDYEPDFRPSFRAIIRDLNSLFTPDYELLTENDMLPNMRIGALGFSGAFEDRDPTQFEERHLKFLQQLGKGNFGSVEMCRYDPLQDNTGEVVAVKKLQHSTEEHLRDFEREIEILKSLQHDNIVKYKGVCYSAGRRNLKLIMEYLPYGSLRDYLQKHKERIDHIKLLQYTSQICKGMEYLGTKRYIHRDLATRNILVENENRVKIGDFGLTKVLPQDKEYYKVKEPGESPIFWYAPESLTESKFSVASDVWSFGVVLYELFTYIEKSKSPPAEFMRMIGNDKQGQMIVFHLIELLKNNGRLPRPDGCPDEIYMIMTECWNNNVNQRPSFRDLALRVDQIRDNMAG
TYK2, sequence (P29597 whole entry): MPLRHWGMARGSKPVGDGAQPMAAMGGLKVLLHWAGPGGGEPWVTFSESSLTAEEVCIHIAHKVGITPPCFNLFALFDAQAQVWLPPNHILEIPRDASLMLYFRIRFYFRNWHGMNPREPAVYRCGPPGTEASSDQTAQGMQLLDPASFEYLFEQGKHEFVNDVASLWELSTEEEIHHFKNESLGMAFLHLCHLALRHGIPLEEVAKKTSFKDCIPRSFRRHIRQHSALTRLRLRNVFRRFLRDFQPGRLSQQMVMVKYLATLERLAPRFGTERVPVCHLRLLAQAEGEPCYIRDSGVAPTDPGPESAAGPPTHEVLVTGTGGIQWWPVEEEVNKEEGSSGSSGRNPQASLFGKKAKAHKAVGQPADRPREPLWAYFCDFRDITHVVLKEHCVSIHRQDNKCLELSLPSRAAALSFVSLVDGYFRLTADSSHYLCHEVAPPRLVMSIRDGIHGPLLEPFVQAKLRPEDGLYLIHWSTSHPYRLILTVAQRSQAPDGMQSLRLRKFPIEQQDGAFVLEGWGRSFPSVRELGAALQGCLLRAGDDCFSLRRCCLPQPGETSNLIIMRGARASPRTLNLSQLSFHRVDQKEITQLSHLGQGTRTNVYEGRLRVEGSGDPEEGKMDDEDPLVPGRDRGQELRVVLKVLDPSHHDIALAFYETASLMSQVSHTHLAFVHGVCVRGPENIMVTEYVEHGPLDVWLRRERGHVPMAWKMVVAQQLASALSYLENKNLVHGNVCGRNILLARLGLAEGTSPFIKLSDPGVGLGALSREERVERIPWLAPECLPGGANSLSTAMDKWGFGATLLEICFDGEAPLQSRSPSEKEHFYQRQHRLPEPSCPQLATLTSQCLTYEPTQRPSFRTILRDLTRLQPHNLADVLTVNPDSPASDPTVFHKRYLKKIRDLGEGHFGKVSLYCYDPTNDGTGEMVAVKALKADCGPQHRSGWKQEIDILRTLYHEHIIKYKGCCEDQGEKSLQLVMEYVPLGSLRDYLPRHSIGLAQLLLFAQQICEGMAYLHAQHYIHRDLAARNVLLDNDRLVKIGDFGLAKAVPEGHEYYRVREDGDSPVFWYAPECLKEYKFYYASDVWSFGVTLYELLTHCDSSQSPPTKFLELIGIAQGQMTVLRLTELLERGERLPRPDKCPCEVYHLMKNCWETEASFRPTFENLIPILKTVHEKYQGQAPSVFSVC

For `CN1CCOCCOc2cc(Nc3nc(-c4cnn(S(C)(=O)=O)c4)c4cc[nH]c4n3)ccc2OCC1` [Example 63, 7-methyl-N-(4-(1-(methylsulfonyl)-1H-pyrazol-4-yl)-7H-pyrrolo[2,3-d]pyrimidin-2-yl)-2,3,6,7,8,9-hexahydro-5H-benzo[b][1,4,7]trioxa[10]azacyclododecan-13-amine], the inhibition at 0.01 µM at LRRK2 and on JAK2 was 40 to 79% each time.
On to `CN1CCOc2ccc(Nc3nc(-c4cnn(C5CN(S(C)(=O)=O)C5)c4)c4cc[nH]c4n3)cc2OCC1` [Example 69, 4-methyl-N-(4-(1-(1-(methylsulfonyl)azetidin-3-yl)-1H-pyrazol-4-yl)-7H-pyrrolo [2,3-d]pyrimidin-2-yl)-3,4,5,6-tetrahydro-2H-benzo[b][1,4,7]dioxazolin-9-amine], for which the results for the inhibition at 0.01 µM on JAK3, at LRRK2 and on JAK2 were 25 to 39%, 25 to 39% and 40 to 79%, respectively.
As to `CN1CCOCCOc2cc(Nc3nc(Nc4ccccc4NS(C)(=O)=O)c4cc[nH]c4n3)ccc2OCC1` [Example 61, N-(2-((2-((7-methyl-2,3,6,7,8,9-hexahydro-5H-benzo[b][1,4,7]trioxa[10]azacyclododecan-13-yl)amino)-7H-pyrrolo[2,3-d]pyrimidin-4-yl)amino)phenyl)methanesulfonamide], the results for the inhibition at 0.01 µM on JAK3, at LRRK2 and at JAK2 were 40 to 79%, greater than 80% and 40 to 79%, respectively. Also, the IC50 against LRRK2 was less than 50 nM.
For `CCS(=O)(=O)N1CC(CC#N)(n2cc(-c3nc(Nc4ccc5c(c4)OCCN(C)CCOCCO5)ncc3F)cn2)C1` [Example 43, 2-(1-(ethylsulfonyl)-3-(4-(5-fluoro-2-((7-methyl-2,3,6,7,8,9-hexahydro-5H-benzo[b][1,4,7]trioxa[10]azacyclododecan-12-yl)amino)pyrimidin-4-yl)-1H-pyrazol-1-yl)azetidin-3-yl) acetonitrile], the inhibition at 0.01 µM was 40 to 79% at TYK2, 25 to 39% at JAK3, 25 to 39% at LRRK2 and greater than 80% on JAK2.
As for `CN1CCOc2ccc(Nc3nc(Nc4cccc(S(=O)(=O)NC(C)(C)C)c4)c4cc[nH]c4n3)cc2OCC1` [Example 21, N-(tert-butyl)-3-((2-((4-methyl-3,4,5,6-tetrahydro-2H-benzo[b][1,4,7]dioxazolin-9-yl)amino)-7H-pyrrolo[2,3-d]pyrimidin-4-yl)amino)benzenesulfonamide], the inhibition at 0.1 µM at LRRK2 and on JAK2 was 40 to 79% throughout. Besides, the IC50 against LRRK2 is 50 to 200 nM; at JAK2 (kinase activity assay, Table 3), less than 50 nM.
As for `CN1CCOCCOc2ccc(Nc3ncc(F)c(-c4cn(C)c5ccccc45)n3)cc2OCC1` [Example 41, N-(5-fluoro-4-(1-methyl-1H-indol-3-yl)pyrimidin-2-yl)-7-methyl-2,3,6,7,8,9-hexahydro-5H-benzo[b][1,4,7]trioxa[10]azacyclododecan-12-amine], the inhibition at 0.01 µM on JAK3 was in the range of 25 to 39%; at JAK2, 40 to 79%.
Turning to `CCS(=O)(=O)N1CC(CC#N)(n2cc(-c3nc(Nc4ccc5c(c4)OCCN(C)CCOCCO5)nc4[nH]ncc34)cn2)C1` [Example 50, 2-(1-(ethylsulfonyl)-3-(4-(6-((7-methyl-2,3,6,7,8,9-hexahydro-5H-benzo[b][1,4,7]trioxa[10]azacyclododecan-12-yl)amino)-1H-pyrazolo[3,4-d]pyrimidin-4-yl)-1H-pyrazol-1-y 1)azetidin-3-yl)acetonitrile], the inhibition at 0.01 µM at TYK2 was 25 to 39%; at JAK2 it was greater than 80%.
Consider `CNc1nc(Nc2ccc3c(c2)OCCN(C)CCO3)nc2[nH]ccc12` [Example 64, N^4-methyl-N^2-(4-methyl-3,4,5,6-tetrahydro-2H-benzo[b][1,4,7]dioxazolin-9-yl)-7H-pyrrolo[2,3-d]pyrimidin-2,4-diamine], for which the inhibition at 0.1 µM on LRRK2 was greater than 80%; on JAK2, 25 to 39%.

These data come from patent EP4592286A1, “MACROCYCLIC NITROGEN-CONTAINING CROWN ETHER COMPOUND AND USE THEREOF AS PROTEIN KINASE INHIBITOR” (Artivila Biopharma, priority 2022, dated 2024).
